# Tests used:
# [1] = tested on: MMA Patient fibroblasts (GM01673); experiment: Mitochondrial morphology imaging in MMA patient fibroblasts (GM01673); type: cell-based; settings: image compared with fragmented mitochondria in vehicle control
# [2] = tested on: CD14+ monocytes differentiated to M1 macrophages; experiment: M1 differentiation assay (macrophage cytokine secretion, ELISA); type: cell-based, human; settings: 10 uM
# Method: Monocytes were isolated by positive isolation with CD14+ microbeads (Miltenyi, 130-050-201). Monocytes were 99% viable and were 96% purity as analyzed by FACS and CD14±(BD, 563561). 100,000 monocytes along with compounds at the dose of 10 and 50 μM were allowed to differentiate to macrophages with 10 ng/ml GMCSF (R&D,15-GM-050/CF) in RPMI complete media (Invitrogen, 22400089) with 15% FBS (Hyclone SV30087.03) and 1% Penicillin-Streptomycin (Gibco, 15140-122). On day 2 and 4 half the media was refreshed with fresh GM-CSF and compounds at 10 and 50 μM dose. On day 6 the macrophages were matured with GMCSF, IFN, (R&D 285-IF-100/CF) and LPS (Sigma, L6143) in the presence of 10 μM and 50 μM of compounds. After 24h, supernatant was collected for the measurement of TNFα (DKW, 1117202), IL6 (DKW, 1110602), IL10 (DKW, 1110003) by ELISA. Macrophages were detached gently on ice with EDTA (Invitrogen, 15575-038) and analyzed by FACS (BD LSR Fortessa, 853492). […]
# [3] = tested on: MMA Patient fibroblasts (TSI 3739); experiment: Mitochondrial morphology imaging in MMA patient fibroblasts (TSI 3739); type: cell-based; settings: image compared with fragmented mitochondria in vehicle control
# [4] = tested on: MMA Patient fibroblasts (GM00371); experiment: Mitochondrial morphology imaging in MMA patient fibroblasts (GM00371); type: cell-based; settings: image compared with fragmented mitochondria in vehicle control
Structure (SMILES),mitochondrial morphology (elongation and networking of mitochondria) [1],% decrease in Macrophage IL-6 Secretion [2] [%],% decrease in Macrophage TNFα Secretion [2] [%],mitochondrial morphology (elongation and networking of mitochondria) [3],mitochondrial morphology (elongation and networking of mitochondria) [4]
"COC(=O)[C@H](CSC(=O)CCCN)NC(=O)CCNC(=O)[C@H](O)C(C)(C)CO [Compound 72, methyl (2R)-3-[(4-aminobutanoyl)sulfanyl]-2-[3-[(2R)-2,4-dihydroxy-3,3-dimethylbutanamido]propanamido]propanoate]",elongation and networking of mitochondria promoted,,,,
"CC(=O)NCCCC(=O)SC[C@H](NC(=O)CCNC(=O)[C@H](O)C(C)(C)CO)C(=O)O [Compound 215, (2R)-2-[3-[(2R)-2,4-dihydroxy-3,3-dimethylbutanamido]propanamido]-3-[(4-acetamidobutanoyl)sulfanyl]propanoic acid]",,≥30,≥30,,
"COC(=O)[C@H](CSC(=O)CCCNC(C)=O)NC(=O)CCNC(=O)[C@H](O)C(C)(C)CO [Compound 216, methyl (2R)-2-[3-[(2R)-2,4-dihydroxy-3,3-dimethylbutanamido]propanamido]-3-[(4-acetamidobutanoyl)sulfanyl]propanoate]",elongation and networking of mitochondria promoted,,,elongation and networking of mitochondria promoted,
"COC(=O)[C@H](CSC(=O)CCCO)NC(=O)CCNC(=O)[C@H](O)C(C)(C)CO [Compound 697, methyl (2R)-2-[3-[(2R)-2,4-dihydroxy-3,3-dimethylbutanamido]propanamido]-3-[(4-hydroxybutanoyl)sulfanyl]propanoate]",elongation and networking of mitochondria promoted,,,elongation and networking of mitochondria promoted,elongation and networking of mitochondria promoted
"COC(=O)[C@H](CSC(=O)CCCOC(C)=O)NC(=O)CCNC(=O)[C@H](O)C(C)(C)CO [Compound 698, methyl (2R)-3-[[4-(acetyloxy)butanoyl]sulfanyl]-2-[3-[(2R)-2,4-dihydroxy-3,3-dimethylbutanamido]propanamido]propanoate]",elongation and networking of mitochondria promoted,,,elongation and networking of mitochondria promoted,

# — patent publication US20230093594A1, “PANTETHENOYLCYSTEINE DERIVATIVES AND USES THEREOF” (Comet Therapeutics, Inc., priority 2019, published 2023)
